From patent US11160836B2, “Transgenic pig islets and uses thereof for treating diabetes” (priority 2014, dated 2021)

Legend:
isolated pig islets = experiment: Glucose-induced insulin secretion from isolated pig islets, static incubation with pharmacological PKC/PKA activators; type: cell-based; conditions: 2 h, PMA 20 nM and/or forskolin 1 μM
Experimental: FIG. 1 is a histogram showing the insulin secretion from adult and neonate isolated pig islets. […] Insulin secretion was measured in the incubation media and expressed as a percentage of total insulin content of each batch of islets. The numbers above the columns represent the fold increase of insulin secretion in test groups compared to 15 mM glucose alone. * p<0.05. […] Finally, insulin was quantified in recovered media and in incubated islets by radioimmuno-assay.

adult pig islets = experiment: Dynamic islet perifusion, glucose-induced insulin secretion of virus-treated adult pig islets; type: cell-based; conditions: adenoviral vector MOI 200, 48 h, perifused G1 then 30 min G15
Experimental: FIG. 4 is a graph showing the insulin secretion of isolated adult pig islets exposed to 200 MOI viral expression vectors carrying sequences coding for GLP-1 (GLP-1 Ser8), activated muscarinic receptor (M3R) or both (GLP-1+M3R) during 48 hours. Batches of 600 islets were perifused in krebs medium containing 1 mM glucose (G1) then 15 mM glucose (G15) as indicated on top of the figure. Insulin secretion was then measured in the effluent fractions. Values are means±SEM for n=3-4 from 4 different preparations.
The effect of transgenic PKA and PKC activation on glucose-induced insulin secretion was also tested during dynamic islet perifusion experiments. Control and virus-treated adult islets were placed in perifusion chambers sealed with 0.2 μm filters. Islets were first perifused with 1 mM glucose (G1) krebs medium during 30 minutes for equilibrium then during 10 minutes in G1 with media collection every 2 minutes followed by 30 minutes stimulation with G15.

MIN6 cells = experiment: Glucose-induced insulin secretion from transfected MIN6 cells, static incubation; type: cell-based, murine; conditions: MIN6 cells 48 h after plasmid transfection; 2 h in 1 or 15 mM glucose; control cells 2.2
Experimental: FIG. 2 is a histogram showing glucose-induced insulin secretion from transfected Min6 cells incubated with 1 (G1) or 15 mM (G15) glucose. The numbers above pairs of columns represent the stimulation ratio (G15/G1) in each group. * p<0.05 indicates significant difference between test groups and controls. Values are means±SEM for n=15-21 from 7 different experiments.
To verify the effect of the transgenic proteins on insulin secretion, transfected and control MIN6 cells were challenged by an increase of glucose concentration during static incubation experiments. Insulin secretion was measured and the stimulation index i.e., the ratio between insulin secretion at high glucose and insulin secretion at low glucose, of transgenic and control cells was calculated. In brief, 2·10^5 cells were seeded in 12-well plates and cultivated for 48 h before they were transfected with one the plasmids carrying the GLP-1 (7-37) gene (GLP-1), the mutated GLP-1 (7-A8S-37) gene (GLP-1 Ser8) or the constitutively activated muscarinic receptor gene (M3). Control cells were simply exposed to Lipofectamine without any plasmidic DNA. 48 h after transfection, cells were starved then incubated for 2 h in a 1 mL Krebs-Ringer buffer containing either 1 or 15 mM glucose. Insulin secretion was measured in the incubation media and expressed as a percentage of total insulin content of the cells.

Compound | fold increase of insulin secretion compared to 15 mM glucose alone (isolated pig islets; islets from adult pigs) [fold] | fold increase of insulin secretion compared to 15 mM glucose alone (isolated pig islets; islets from neonate pigs) | effect on acute glucose-induced insulin secretion during perifusion, in words (adult pig islets) | stimulation index (insulin secretion G15/G1) (MIN6 cells)
CCCCCCCCCCCCCC(=O)O[C@@H]1[C@@H](C)[C@@]2(O)[C@@H](C=C(CO)C[C@]3(O)C(=O)C(C)=C[C@@H]23)[C@@H]2C(C)(C)[C@]12OC(C)=O [PMA, phorbol myristate acetate] | 2 | up to 8 fold | – | –
GLP-1 | – | – | virtually no effect | 2.6
